Patent US20040105857A1, “Methods and compositions for enhancing angiogenesis” (priority 2003, published 2004)

Assays:
integrin = assay: Integrin-binding activity of mutant L1 peptide (data not shown)
[1] = test system: chick chorioallantoic membrane (CAM); assay: Angiogenesis assay in the chick chorioallantoic membrane (CAM) model, vessel branch point count; type: in vivo; settings: for induction of angiogenic response (vessel branch points): within a defined concentration range
Description: FIG. 1 depicts induction of angiogenesis by soluble L1-fusion protein containing the fourth, fifth, and sixth Ig-like domains of L1 (Ig 4-6). a. GST fusion proteins were made covering the entire extra-cellular domain of L1 and consisted of immunoglobulin like domains 1 through 3 (Ig1 3), immunoglobulin like domains 4 through 6 (Ig4-6), and FN type III like domains 1-5 (FN1 5). b. The L1-fusion proteins (Ig 1-3, Ig 4-6 or FN1-5) were tested for their ability to induce an angiogenic response in the chick chorioallantoic membrane (CAM) model. Filter discs each received 0.5 mg of Ig4-6 fusion protein ([…]) or equimolar amounts of the Ig 1-3, or FN1-5 fusion proteins. Negative or positive control groups received filter discs saturated with media alone or with bFGF respectively. Angiogenesis was quantified by counting the number of vessel branch points within the area of membrane immediately beneath the disc. The number of vessel branch points counted in the control group receiving media alone has been subtracted. Treatment groups consisted of a minimum of six embryos and experiments were performed on three separate occasions. c. […] Results obtained using bFGF or media alone are shown for comparison. Note that fine and highly branched angiogenic vessels can be distinguished from large preexisting vessels. Dotted lines delineate the area of the filter disc placed on the membrane. Excised membrane beneath and adjacent to the filter discs were photographed using an Olympus SZH10 Research Stereo microscope at 15×.
FIG. 2 depicts induction of angiogenesis by a L1-RGD peptide and by a function blocking antibody to β1 integrins. a. The L1 peptide PSITWRGDGRDLQEL or the mutant L1 peptide PSITWRADGRDLQEL were tested for their ability to induce an angiogenic response in the chick CAM model. b. Function blocking antibodies to chick avβ3 (LM609) or to chick β1-intgrins (CSAT) were also tested. […] Angiogenesis was quantified by counting the number of vessel branch points within the area of membrane immediately beneath the disc. The number of vessel branch points counted in the control group receiving media alone has been subtracted. c. […]
FIG. 3 depicts induction of angiogenesis by L1 cleavage products. a. […] Untreated and digested L1 (trypsin free) was then analyzed by SDS polyacrylamide gel electrophoresis (5-15% gradient). b. Sites of trypsin cleavage were determined by amino terminal sequencing and are shown schematically. c. […] Angiogenesis was quantified by counting the number of vessel branch points within the area of membrane immediately beneath the disc.
Angiogenesis assay. Angiogenesis was assessed using the chick chorioallantoic membrane (CAM) model which has been extensively described^54. […]

[2] = test system: HDMEC or ECV304 avb3(−) cell adhesion to fibronectin; assay: Cell adhesion to fibronectin (data not shown); type: cell-based; design: effect on cell adhesion to fibronectin: dose or concentration left out as unconfirmed
Description: The extent to which the L1 polypeptide or L1-RGD peptide alters adhesivity between endothelial cells, or endothelial cells and the subendothelial matrix remains to be determined. However, at a high molarity (250 uM) the L1-RGD peptide abrogated 30-40% of HDMEC or ECV304 avb3(−) cell adhesion to fibronectin (data not shown). […] This would certainly be consistent with the fact that both αvβ3 and αvβ1 can promote cell adhesion or spreading on fibronectin^37-38.

[3] = molecular target: T1, αvβ1 expressed by endothelial cells (Homo sapiens, UniProt P05556+P06756); settings: reference 18; cited from earlier work
T1 construct: αvβ1 expressed by endothelial cells; endogenous in cells
T1 sequence (P06756 31-889 limits assumed): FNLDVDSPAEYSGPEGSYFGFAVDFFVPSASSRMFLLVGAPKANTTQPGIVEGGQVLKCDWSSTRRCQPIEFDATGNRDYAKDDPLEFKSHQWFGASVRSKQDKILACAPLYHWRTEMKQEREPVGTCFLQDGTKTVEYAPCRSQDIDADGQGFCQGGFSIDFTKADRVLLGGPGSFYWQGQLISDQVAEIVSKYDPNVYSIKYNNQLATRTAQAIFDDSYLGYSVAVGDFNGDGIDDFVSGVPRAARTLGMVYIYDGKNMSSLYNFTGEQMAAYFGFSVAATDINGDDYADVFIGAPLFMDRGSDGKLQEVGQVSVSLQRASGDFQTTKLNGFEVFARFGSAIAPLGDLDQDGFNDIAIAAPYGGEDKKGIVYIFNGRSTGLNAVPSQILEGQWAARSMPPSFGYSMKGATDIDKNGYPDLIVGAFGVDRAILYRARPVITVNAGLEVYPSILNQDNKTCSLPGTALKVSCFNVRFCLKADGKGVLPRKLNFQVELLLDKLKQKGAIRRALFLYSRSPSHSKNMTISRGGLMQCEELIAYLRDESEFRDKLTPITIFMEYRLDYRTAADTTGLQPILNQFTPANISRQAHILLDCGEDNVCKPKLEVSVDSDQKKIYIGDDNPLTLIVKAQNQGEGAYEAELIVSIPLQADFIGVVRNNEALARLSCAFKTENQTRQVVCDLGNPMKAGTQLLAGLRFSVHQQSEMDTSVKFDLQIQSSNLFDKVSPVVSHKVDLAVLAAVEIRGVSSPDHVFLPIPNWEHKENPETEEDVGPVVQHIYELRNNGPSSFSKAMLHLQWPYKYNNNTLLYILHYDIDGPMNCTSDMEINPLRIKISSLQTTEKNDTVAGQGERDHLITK
T1 sequence (P06756 891-1048 limits assumed): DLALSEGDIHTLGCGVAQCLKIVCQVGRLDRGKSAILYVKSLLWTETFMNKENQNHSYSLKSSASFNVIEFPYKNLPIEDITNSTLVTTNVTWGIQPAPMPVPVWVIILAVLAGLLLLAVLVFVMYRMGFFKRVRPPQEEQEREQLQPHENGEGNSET
T1 sequence (P05556 21-798): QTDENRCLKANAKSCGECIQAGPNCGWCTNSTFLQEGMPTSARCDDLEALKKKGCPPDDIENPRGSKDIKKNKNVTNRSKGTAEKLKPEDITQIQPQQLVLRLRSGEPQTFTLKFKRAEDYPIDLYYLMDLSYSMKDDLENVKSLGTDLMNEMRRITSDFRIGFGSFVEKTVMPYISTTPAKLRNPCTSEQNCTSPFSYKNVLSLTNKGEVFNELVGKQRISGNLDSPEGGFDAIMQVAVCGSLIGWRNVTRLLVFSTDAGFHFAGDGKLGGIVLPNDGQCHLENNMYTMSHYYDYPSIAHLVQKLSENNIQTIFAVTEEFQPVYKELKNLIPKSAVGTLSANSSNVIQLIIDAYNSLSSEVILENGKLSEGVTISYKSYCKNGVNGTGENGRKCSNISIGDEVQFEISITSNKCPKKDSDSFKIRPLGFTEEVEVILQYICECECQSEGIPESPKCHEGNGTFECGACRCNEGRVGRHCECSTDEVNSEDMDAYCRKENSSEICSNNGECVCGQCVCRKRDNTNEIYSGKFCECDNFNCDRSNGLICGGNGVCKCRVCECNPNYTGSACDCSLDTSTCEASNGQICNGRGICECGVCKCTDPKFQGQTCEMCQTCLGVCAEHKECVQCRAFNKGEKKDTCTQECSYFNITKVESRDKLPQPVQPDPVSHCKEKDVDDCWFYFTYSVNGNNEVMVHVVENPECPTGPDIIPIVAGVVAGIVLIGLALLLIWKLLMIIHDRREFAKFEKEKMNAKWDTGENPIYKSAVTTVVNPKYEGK

Sequence | integrin-binding activity (integrin) | angiogenic activity compared with an equivalent concentration of the wildtype peptide ([1]; L1 peptides, 0.01-5 mg/disc) | induction of angiogenic response (vessel branch points) ([1]; L1 peptides, 0.01-5 mg/disc) | angiogenic response at high concentration ([1]; high concentration of peptide or antibody) | cell adhesion to fibronectin abrogated ([2]; 250 uM peptide, HDMEC or ECV304 avb3(−) cells) | effect on cell adhesion to fibronectin ([2]; lower proangiogenic concentrations) | recognition by αvβ1 [3]
PSITWRADGRDLQEL [15-mer L1 peptide containing the mutation RGD to RAD; control peptide] | retained some integrin-binding activity | significantly less proangiogenic | some angiogenic activity |  |  |  | 
PSITWRGDGRDLQEL [L1-RGD peptide] |  |  | proangiogenic | not effective | 30-40% | did not overtly prevent adhesion | recognized by αvβ1
